Measurements taken from a melting point compilation (Tetko et al.; mined from patent text by program, amines drawn as free bases though some values may be those of a salt).

Compared with `COc1ccc2nc(-n3ccnc3)nc(NCCSC)c2c1`, `Cc1cc(Nc2ncnc3ccc(-n4ccnc4)cc23)ccc1OCc1ccccn1` is higher in melting point: 168 to 178 °C for the first, 208 to 211 °C for the second.

First: N#Cc1ccc(-c2cn(-c3ccc(C#N)cc3)c(SCC(O)CO)n2)cc1 (stereo unspecified)
Second: CCNC(=O)c1ccc(-c2ccc3nnn(Cc4ccc5ncccc5c4)c3n2)cc1F
The melting point of the first is lower: 190 to 195 °C for the first, 207 to 209 °C for the second.

First: CC(C(=O)O)c1ccc2c(c1)C(=O)Cc1cc(F)ccc1S2 (stereo unspecified)
Second: CC(Oc1ccc(Oc2ncc(Cl)cc2F)cc1)C(=O)O (stereo unspecified)
The melting point of the first is higher: 213 to 214 °C for the first, 95 to 97 °C for the second.

First: Cc1cc(=O)c2ccc(OCC(O)CCl)cc2o1 (stereo unspecified)
Second: COC(=O)c1ccc2cc(CCCO)oc2c1
The melting point of the first is higher: 104 to 106 °C for the first, 63 to 65 °C for the second.

First: CCCc1nn(C)c2c(=O)n(CCNc3ccc(SC(C)(C)C(=O)OCC)cc3)c(CC)nc12
Second: CCCOc1ccc(S(=O)(=O)CC)cc1-c1nc2c(CC)nn(C[C@@H]3CCCN3C(=O)OC(C)(C)C)c2c(=O)[nH]1
The melting point of the first is lower: 105 to 107 °C for the first, 170 to 172 °C for the second.

`CCCc1c(OCCCOc2ccc(C(=O)NCCCCc3cccnc3)cc2)ccc(C(C)=O)c1O` and `COc1cccc([C@H]2O[C@H](CC(=O)NCCCOc3cccc(C(=O)O)c3)C(=O)N(CC(C)(C)CO)c3ccc(Cl)cc32)c1OC` cannot be ordered by melting point: 133 to 134 °C for the first, 132 to 134 °C for the second.

First: COc1ccc(C(O)(Cc2ccncc2)c2ccccc2)cc1OC1CCCC1 (stereo unspecified)
Second: COc1cccc(O[C@@H]2COc3ccc(OCc4ccccn4)cc3[C@@H]2O)c1 (relative stereo)
The melting point of the first is higher: 148 to 149 °C for the first, 105 to 107 °C for the second.

Compared with `COc1cc(Cl)c2c(-c3ccccc3F)noc2c1`, `COc1cn(-c2ccccc2F)nc(C(C)=O)c1=O` is higher in melting point: 113 to 115 °C for the first, 154 to 156 °C for the second.

First: CCC1CN(c2cccc(C(C)C)c2)C(=O)C1c1cccc(Cl)c1 (stereo unspecified)
Second: NC(=O)N1CC(c2ccccc2)C(c2ccc(Cl)cc2)=N1 (stereo unspecified)
The melting point of the first is lower: 88.5 to 90 °C for the first, 173 to 175 °C for the second.

First: C[Si](C)(C)c1cccc2cc(C(=O)Nc3ccc(N4CC(O)C4)nc3)n(Cc3cccc(F)c3)c12
Second: COCCC(=O)OC[C@@H]1CC(c2ccc(-c3ccc(N4C[C@H](Cn5ccnn5)OC4=O)cc3F)cn2)=NO1
The melting point of the first is higher: 215 to 217 °C for the first, 149 °C for the second.

Compared with `CS(=O)(=O)Nc1cc2occ(N)c(=O)c2cc1Oc1ccccc1`, `Cc1ccc(C(=O)Nc2ccccc2)cc1[N+](=O)[O-]` is lower in melting point: 162 to 163 °C for the first, 147 to 148 °C for the second.

First: Cn1c(CN2C(=O)c3ccccc3C2=O)c(-c2ccc(O)cc2)c2cc(Cl)ccc2c1=O
Second: Cc1nnc(-c2ccc3c(=O)n(CC(C)C)c(CN)c(-c4ccccc4)c3c2)o1
The melting point of the first is higher: 307 to 308 °C for the first, 179 to 181 °C for the second.

First: Cc1c(C#N)c(=O)[nH]c(=O)n1Nc1c(Cl)cc(Cl)cc1Cl
Second: O=c1[nH]nc2n1-c1ccc(Cl)cc1C(c1ccccc1Cl)=CC2
The melting point of the first is higher: > 305 °C for the first, 250 to 251 °C for the second.

First: N=C(N)NC(=O)c1cn(-c2nccc3ccccc23)c2ncccc12
Second: CO/N=C(/C(=O)O)c1ccc(OCCOc2ccc3ccccc3c2)s1
The melting point of the first is higher: 250 °C for the first, 118 to 120 °C for the second.

Compared with `Cc1[nH]cnc1C=C1CCc2c(C)c3ccccc3n2C1=O`, `Cn1c(=O)c(C(=O)NC2CCCCC2)c(O)c2ccccc21` is lower in melting point: 252 to 255 °C for the first, 145 °C for the second.

First: OC1CCN(c2ncc(-c3ccc(Cl)cc3Cl)cn2)CC1
Second: CCN1c2ncc(COc3cccnc3)cc2C(=O)N(C)c2ccc(Cl)nc21
The melting point of the first is lower: 122 to 124 °C for the first, 183 to 184 °C for the second.

First: CCC1(CC)NC(=O)C(CC)(CC)N1
Second: CCCc1c(C(=O)N(CC)CC)ccc(OC)c1OC
The melting point of the first is higher: 68 to 70 °C for the first, 65 to 67 °C for the second.

Compared with `Cn1c(C(F)(F)F)cc(=O)n(-c2cc(F)c([N+](=O)[O-])cc2F)c1=O`, `O=c1c2cccc3c2n(c(=O)n1CCO)-c1cc(C(F)(F)F)ccc1S3=O` (stereo unspecified) is higher in melting point: 150 °C for the first, 205 to 206 °C for the second.

First: N=c1ccccn1COc1ccccc1Br
Second: Clc1ccccc1C=C(CBr)c1ccccc1
The melting point of the first is lower: 62 to 64 °C for the first, 78 °C for the second.

First: C=CCOc1ccc(Cl)cc1C(=O)OC
Second: COc1cccc(CCC(=O)c2c[nH]cn2)c1OC
The melting point of the first is lower: 25 to 26 °C for the first, 120 to 125 °C for the second.

First: CCOC(=O)c1sc(I)nc1-c1ccccc1
Second: CCOC(=O)c1[nH]c2ccc(Cl)cc2c1Sc1ccccc1
The melting point of the first is lower: 104 to 106 °C for the first, 160 to 162 °C for the second.

Compared with `c1ccc(C2C3=NCCN3CCc3ccccc32)cc1` (stereo unspecified), `O=C1C2CCCC2=Nc2ccccc2N1Cc1ccccc1F` (stereo unspecified) is higher in melting point: 122 to 123 °C for the first, 135 to 137 °C for the second.

First: CSC(=NCCSCc1ccc(CN(C)C)o1)NC#N
Second: C[Si](C)(C)CNc1ccc([N+](=O)[O-])cc1
The melting point of the first is lower: 78 to 79 °C for the first, 120 °C for the second.

Compared with `Cc1nc(C)c(C(C)(O)c2cccnc2)s1` (stereo unspecified), `Fc1cccc(F)c1-c1cccnc1` is higher in melting point: 108 to 109 °C for the first, 194 to 196 °C for the second.

First: N#Cc1cc(=O)n(CCc2ccccc2)s1
Second: O=C(O)CSc1cc(=Nc2ccccc2)ss1
The melting point of the first is higher: 228 °C for the first, 147 °C for the second.

First: CCOP(=O)(OCC)C(F)(F)c1ccc(CN(Cc2ccc(C(F)(F)P(=O)(OCC)OCC)cc2)C(=O)NCc2ccccc2)cc1
Second: CC(c1ccccc1)(c1ccc(OC(=O)CCl)cc1)c1ccc(OC(=O)CCl)cc1
The melting point of the first is higher: 124 to 127 °C for the first, 97 to 98 °C for the second.

Compared with `COc1ccc(OCCCc2cn(-c3ccc(C(F)(F)F)cn3)nc2C(C)C)c(CC(=O)O)c1`, `CCCc1cn(C)cc(-c2cccc(C(F)(F)F)c2)c1=O` is lower in melting point: 143 to 144 °C for the first, 45 to 47 °C for the second.

Compared with `CC(=O)OCC1OC(n2cnc3c(N)nc(F)nc32)C(OC(C)=O)C1OC(C)=O` (stereo unspecified), `CCOC(=O)C1=C(C)NC(C=O)=C(C(=O)OCC)C1c1ccco1` (stereo unspecified) is lower in melting point: 195 to 196 °C for the first, 78 to 79.5 °C for the second.

Compared with `CCCCCCCCC1SC(=S)SC1CCCCCCCCO` (stereo unspecified), `CCCCc1nc2c(N)nc3ccccc3c2s1` is higher in melting point: 40 to 47 °C for the first, 149 to 151 °C for the second.

First: CCOc1ncnc2c1sc1nc(N(C)C)c3c(c12)CC(C)(C)CC3
Second: COC(=O)c1ccc2cc(C(=O)c3cc(O)c4c(c3)C(C)(C)CCC4(C)C)ccc2c1
The melting point of the first is lower: 220 to 221 °C for the first, 222 °C for the second.

First: CN(Cc1ccc([N+](=O)[O-])cc1)C1CCN(c2ccc(NS(C)(=O)=O)cc2)CC1
Second: CN1C(=O)CC[C@]2(C)c3ccc(-c4ccc(S(C)(=O)=O)cc4)cc3CC[C@@H]12
The melting point of the first is lower: 167 to 168 °C for the first, 229 °C for the second.

Compared with `CC(C)c1csc(/C=C/c2cccc(NC(=O)Cc3ccccc3CC(=O)O)c2)n1`, `CCCCOC(=O)/C=C/c1ccc2c(=O)n(CC(C)C)c(CNC(=O)OC(C)(C)C)c(-c3ccc(Cl)cc3)c2c1` is higher in melting point: 144 to 146 °C for the first, 149 to 150 °C for the second.

Compared with `CNC(=O)[C@@H](C[C@H](O)[C@H](CC(C)C)NC(=O)OC(C)(C)C)C(C)(C)O`, `COS(=O)(=O)c1cc(C(C)(C)C)c(O)c(C(C)(C)C)c1` is lower in melting point: 121 to 123 °C for the first, 116 to 118 °C for the second.

First: Cc1cc2c(cc1C)=NC(=O)N=2
Second: Cc1sc(N)c(C(=O)c2ccc(Cl)s2)c1C
The melting point of the first is higher: > 360 °C for the first, 125 to 127 °C for the second.

First: CN(C)c1cccc2c(S(=O)(=O)NCC(=O)N3CCC[C@H]3C(=O)OC(C)(C)C)cccc12
Second: CC(C)(C)c1ccc(CCC(=O)C2CCCCCC2)cc1NC(=O)CC1c2ccccc2Oc2ccccc21
The melting point of the first is lower: 60 to 67 °C for the first, 155 to 156 °C for the second.

Compared with `N#Cc1cnc2ccc(-n3cccc3C=O)cc2c1Nc1cccc(Br)c1`, `N#Cc1cc(Cc2ccccc2)cc(-c2cccc([N+](=O)[O-])c2)c1O` is higher in melting point: 94 to 95 °C for the first, 148 to 149 °C for the second.

Compared with `O=C1C(=Cc2ccc(Cl)cc2)Cc2ccccc21`, `O=c1ccn(-c2ccc(Cl)cc2)nc1-c1ccnn1-c1ccccc1` is higher in melting point: 174 to 179 °C for the first, 219 to 220 °C for the second.

Going from `Cc1c(-c2ccc(F)cc2)c(-c2ccc(S(C)(=O)=O)cc2)c2n1CCC2` to `COC(=O)Cc1ccc(OCCNC(=O)C2Cc3ccccc3N2S(=O)(=O)c2ccc(-c3ccc(C)cc3)c(C(F)(F)F)c2)cc1` (stereo unspecified), the melting point falls from 191 °C to 60 °C.

Compared with `COc1cc(OC)nc(Oc2cccc(Oc3nc(OC)cc(OC)n3)c2CBr)n1`, `COc1ccc2c(c1)c(-c1cc3cc(-c4ccccc4)cnc3[nH]1)cn2C` is higher in melting point: 127 °C for the first, 240 to 242 °C for the second.

`N#Cc1c(N)[nH]c(Br)c1C#N` and `CN(C)C=Cc1[nH]c(=O)ccc1C(=O)c1ccc(Br)cc1` cannot be ordered by melting point: > 210 °C for the first, 265 to 268 °C for the second.

Compared with `COC(=O)Cc1ccc(CN2CCN(C(c3ccccc3)c3ccc(Cl)cc3)CC2)cc1` (stereo unspecified), `NCCc1ccc(N2C(=O)N(c3ccc(Cl)cc3Cl)Cc3cnc(Nc4ccccc4)nc32)cc1` is higher in melting point: 113 to 115 °C for the first, 117 to 121 °C for the second.

Going from `O=C(NC(=NCCCOc1ccccc1)Oc1ccccc1)c1ccccc1` to `O=C(NC(=O)c1ccco1)C(=O)Oc1ccc([N+](=O)[O-])cc1`, the melting point rises from 75 °C to 115 °C.

First: C[C@H]1CC[C@H]2C(C)(C)[C@@H](O)CC[C@]23Oc2c(c(O)cc4c2CN(S(=O)(=O)c2ccccc2)C4)C[C@]13C
Second: COc1ccc(C(=O)N[C@@H]2CCc3cccc(N4CCN(C)CC4)c3C2)cc1
The melting point of the first is lower: 150 to 153 °C for the first, 186 to 187 °C for the second.

First: CC(C)NC(=O)c1ccccc1F
Second: CC(C)(C)c1csc(C(C#N)=C(O)c2c(F)cccc2F)n1
The melting point of the first is lower: 76 to 78 °C for the first, 207 to 209 °C for the second.

First: NC(=O)N1C(=O)C(C(=O)c2cccs2)c2ncc(Cl)cc21 (stereo unspecified)
Second: OCc1ccc(C=Cc2csc3ccccc23)s1
The melting point of the first is higher: > 250 °C for the first, 68 to 70 °C for the second.

Compared with `CN1C(=O)NC(=O)C1O` (stereo unspecified), `CC(=O)SCSc1cn(C)nn1` is lower in melting point: 135 to 136 °C for the first, 71 to 72 °C for the second.

Compared with `COc1nc2ccc(Br)cc2cc1C(c1ccccc1)n1cccn1` (stereo unspecified), `CCc1ccc(OC(C)=O)c(C2(OC(C)=O)C(=O)c3ccccc3C2=O)c1` is higher in melting point: 142 to 144 °C for the first, 153 to 154 °C for the second.

Compared with `CCc1c(NC(=O)c2cc(S(C)(=O)=O)ccc2OCC(C)C)c(C(N)=O)nn1CCN1CCOCC1`, `Cc1c(N=C2NCCO2)cccc1NS(C)(=O)=O` is lower in melting point: 200 to 203 °C for the first, 124 to 140 °C for the second.

First: NC(=O)Cc1ccc(OC[C@@H]2CO2)cc1
Second: COC(=C[N+](=O)[O-])NCc1cccnc1
The melting point of the first is higher: 168 to 169 °C for the first, 129 to 130 °C for the second.

First: CCOC(=O)c1c(-c2cc(C(C)(C)C)c(O)c(C(C)(C)C)c2)c2cc3c(cc2oc1=O)CCC3
Second: CC(=O)Nc1nc(C)c(S(=O)(=O)NC(C)(C)CO)s1
The melting point of the first is higher: 208 to 209 °C for the first, 194 °C for the second.

For `O=C1Nc2cccnc2Nc2ncccc21`, the melting point was > 340 °C.
